Like-named read-outs stand apart in the source and are kept apart here.
Assays:
VvelCSP1 = VvelCSP1 (Vespa velutina auraria, UniProt A0A384ZVP9); assay: Fluorescence competitive binding assay (1-NPN probe) with VvelCSP1; conditions: for Ki: VvelCSP1
Description: (§1) Fluorescence competitive binding assays were employed to characterize the interactions between VvelCSPs and 13 volatiles shared between the elaiosomes of S. tuberosa and the cuticular hydrocarbons of honeybees. These tests were performed in 1 cm path length quartz cuvettes with an excitation wavelength of 337 nm and emission wavelength scanning from 400–450 nm. The volatiles and the fluorescent probe 1-NPN (1-N-phenylnaphthylamine), listed in Supplementary Table S2, were dissolved in methanol to prepare 100 mM stock solutions, which were then diluted to 1 mM working solutions [25]. To remove any potential endogenous ligands, the purified proteins were delipidated by three washes with an equal volume of dichloromethane (1:1 v/v). Each wash involved a 10-min incubation, and the process was followed by evaporation of the residual solvent under a gentle stream of nitrogen. Purified CSPs were resuspended in 20 mM Tris-HCl buffer (pH 7.5) to a final concentration of 2 μM. Binding parameters for CSP-NPN were determined by titration: 2 mL of CSP solution (2 μM) was titrated with 1-NPN (final concentrations: 2−24 μM). Maximum fluorescence intensity was recorded, and the dissociation constant was calculated. […] After incubation in the dark for 2 min, fluorescence quenching was measured. Half-maximal inhibitory concentration (IC50) values for volatiles were calculated from the competition curves, and their binding constants (Ki) were subsequently derived. The presented data, including IC50 and Ki values, originate from a single experiment under uniform conditions to ensure comparability (Supplementary Table S3).

VvelCSP4 = assay: Fluorescence competitive binding assay (1-NPN probe) with VvelCSP4; set-up: species or system Vespa velutina auraria
Description: as §1

[1] = VvelCSP4 2 μM, 1-NPN 1 μM, Tris-HCl pH 7.5, single experiment, read-out: IC50 (ligand concentration displacing 50% of the fluorescence intensity of the CSPs/NPN complex)
[2] = VvelCSP4, derived from IC50, read-out: Ki (dissociation constant)
[3] = VvelCSP4, read-out: IC50 (μM), no binding symbol
[4] = VvelCSP4, read-out: Ki (μM), no binding symbol

VvelCSP1, sequence (A0A384ZVP9 entry or part of it): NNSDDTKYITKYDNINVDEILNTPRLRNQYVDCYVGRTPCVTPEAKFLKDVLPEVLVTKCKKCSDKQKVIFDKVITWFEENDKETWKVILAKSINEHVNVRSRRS

Raw fluorescence intensity (VvelCSP1; VvelCSP1, chemical 0.5 μM)	Raw fluorescence intensity (VvelCSP1; VvelCSP1, chemical 1 μM)	Raw fluorescence intensity (VvelCSP1; VvelCSP1, chemical 2 μM)	Raw fluorescence intensity (VvelCSP1; VvelCSP1, chemical 4 μM)	Raw fluorescence intensity (VvelCSP1; VvelCSP1, chemical 6 μM)	Raw fluorescence intensity (VvelCSP1; VvelCSP1, chemical 8 μM)	Raw fluorescence intensity (VvelCSP1; VvelCSP1, chemical 12 μM)	Raw fluorescence intensity (VvelCSP1; VvelCSP1, chemical 16 μM)	IC50 (VvelCSP4; [1])	Raw fluorescence intensity (VvelCSP4; VvelCSP4, chemical 0.5 μM)	Raw fluorescence intensity (VvelCSP4; VvelCSP4, chemical 1 μM)	Raw fluorescence intensity (VvelCSP4; VvelCSP4, chemical 2 μM)	Raw fluorescence intensity (VvelCSP4; VvelCSP4, chemical 4 μM)	Raw fluorescence intensity (VvelCSP4; VvelCSP4, chemical 6 μM)	Raw fluorescence intensity (VvelCSP4; VvelCSP4, chemical 8 μM)	Raw fluorescence intensity (VvelCSP4; VvelCSP4, chemical 12 μM)	Raw fluorescence intensity (VvelCSP4; VvelCSP4, chemical 16 μM)	Ki (VvelCSP4; [2])	IC50 (VvelCSP4; [3])	Ki (VvelCSP4; [4])	Structure (SMILES)	other results
246.77	231.89	197.76	171.56	161.14	158.53	154.82	153.17	3.68 µM	205.93	179.89	159.86	127.80	108.85	102.51	95.75	91.32	2.73 µM	–	–	CCCCCCCCCCCCCCCCCCCCCC [Docosane]	–
246.85	234.09	206.27	199.36	183.72	175.07	172.10	170.22	–	192.14	182.38	164.23	154.96	139.00	133.35	128.24	125.62	–	> 24 µM	> 18 µM	CCCCCCCCCCCCCCCCCCCC [Eicosane]	–
190.87	168.28	152.31	138.38	134.83	130.66	127.58	125.86	19.8 µM	252.45	226.44	209.89	178.34	161.57	149.85	143.60	140.19	14.7 µM	–	–	CCCCCCCCCCCCCCCCCCCCC [Heneicosane]	–
222.51	205.55	159.00	136.99	130.11	123.81	117.37	115.92	6.2 µM	218.17	194.71	172.10	154.91	140.68	130.60	128.65	125.52	4.6 µM	–	–	CCCCCCCCCCCCCCCCCCCCCCCCCCC [Heptacosane]	–
189.29	171.76	135.79	114.55	103.35	99.94	93.92	89.96	–	213.35	194.71	177.42	169.19	147.61	141.30	136.25	133.13	–	> 24 µM	> 18 µM	CCCCCCCCCCCCCCCCCCCCCCCCCC [Hexacosane]	–
223.11	209.38	178.27	171.35	158.50	148.00	140.37	133.91	10.4 µM	238.31	207.32	185.38	167.28	153.91	144.81	135.70	129.34	7.89 µM	–	–	CCCCCCCCCCCCCCCCCCC [Nanadecane]	IC50 (VvelCSP1; VvelCSP1 2 μM, 1-NPN 1 μM, Tris-HCl pH 7.5, single experiment, read-out: IC50 (ligand concentration displacing 50% of the fluorescence intensity of the CSPs/NPN complex)): 18.2 µM; Ki (VvelCSP1; derived from IC50, read-out: Ki (dissociation constant)): 14.5 µM; Ki (VvelCSP1; read-out: Binding affinity class (by Ki)): > 10 µM; Ki (VvelCSP4; VvelCSP4, read-out: Binding affinity class (by Ki)): 5 to 10 µM
215.85	197.03	181.17	168.33	152.52	138.03	127.11	120.08	20.4 µM	212.97	196.97	179.08	164.16	151.46	136.04	129.53	125.16	15.1 µM	–	–	CCCCCCCCCCCCCCCCCCCCCCCCCCCCC [Nonacosane]	–
200.77	192.40	162.06	146.64	135.22	131.33	127.20	124.62	–	227.35	213.99	194.19	182.58	174.55	162.14	156.02	154.11	–	> 24 µM	> 18 µM	CCCCCCCCCCCCCCCCCCCCCCCCCCCC [Octacosane]	–
242.52	219.99	165.83	143.30	135.17	129.88	124.70	122.60	4.65 µM	211.45	182.28	160.44	139.39	119.91	111.74	105.45	103.82	3.49 µM	–	–	CCCCCCCCCCCCCCCCCCCCCCCCC [Pentacosane]	–
225.09	200.88	176.79	157.66	144.05	131.64	122.98	117.42	18.9 µM	216.50	198.86	178.28	160.59	153.54	132.96	126.27	122.27	14.2 µM	–	–	CCCCCCCCCCCCCCCCCCCCCCCC [Tetracosane]	–
